Measurements published in ChEMBL document CHEMBL1221189, “Structural basis for macrolactonization by the pikromycin thioesterase” (Nat Chem Biol, 2006).
Active and inactive are the calls of the source. The rule behind the calls is not given here.

Tests used:
Streptomyces venezuelae [1] = assay: Inactivation of pikromycin thioesterase in Streptomyces venezuelae assessed as rate of enzymatic hydrolysis of p-nitrophenylpropionate after 8 hrs
Streptomyces venezuelae [2] = assay: Inactivation of pikromycin thioesterase in Streptomyces venezuelae assessed as rate of enzymatic hydrolysis of p-nitrophenylpropionate at 2 mM after 6 hrs
Streptomyces venezuelae [3] = assay: Inactivation of pikromycin thioesterase in Streptomyces venezuelae assessed as rate of enzymatic hydrolysis of p-nitrophenylpropionate at 2 mM; conditions: TDE = time-dependent effect
Streptomyces venezuelae [4] = assay: Inactivation of pikromycin thioesterase in Streptomyces venezuelae assessed as rate of enzymatic hydrolysis of p-nitrophenylpropionate at 2 mM after 50 mins

| Structure (SMILES) | Activity (Streptomyces venezuelae [1]) | Activity (Streptomyces venezuelae [2]) | Activity (Streptomyces venezuelae [3]) | fold change (FC) (Streptomyces venezuelae [4]) |
| --- | --- | --- | --- | --- |
| CC[C@H](O)[C@@H](C)C(=O)CP(=O)(Oc1ccccc1)Oc1ccccc1 | Active | – | – | – |
| C[C@@H](CO)C[C@H](C)[C@H](O)[C@@H](C)C(=O)CP(=O)(Oc1ccccc1)Oc1ccccc1 | – | Active | tde | 2 |
